One assay has as its target recombinant human HDAC1 (Homo sapiens (Human), UniProt Q13547). Put plainly: Enzymatic screening, HDAC1 inhibition (fluorogenic FdL_G substrate). Type of assay: biochemical. How it is done:
(§1) For each test compound, 100× concentrated DMSO solutions at 8 doses were prepared and then diluted in assay buffer (25 mM Tris-HCl, pH 8, 130 mM NaCl, 0.05% Tween-20, 10% Glycerol) to obtain 5× concentrated solutions in relation to the final concentrations (typical final concentration range—6.4-200000 nM or 0.18-50000 nM, final DMSO content—1%). Then 10 μL solution of each test compound concentration were placed on a 96-well plate in triplicate and 15 μL of 3.33× concentrated enzyme solution in the assay buffer containing 3.33× concentrated BSA (final BSA concentration—2 mg/mL for HDAC4, HDAC5 and HDAC9 or 1 mg/mL for other isoforms) and in the case of HDAC6-3.33× concentrated TCEP (final TCEP concentration—200 μM) were added to each well. After a period of preincubation (incubation times and temperatures vary for different isoforms and are shown in table 1) 25 μL of solution containing the substrate were added. As substrate, FLUOR DE LYS® deacetylase substrate (Enzo Life Sciences, cat: BML-KI104, FdL), FLUOR DE LYS®-Green substrate (Enzo Life Sciences, cat: BML-KI572, FdL_G) or Boc-Lys(Tfa)-AMC (Bachem, cat: 4060676.005, Tfal)—2× concentrated solution in assay buffer were used. Following a reaction period (reaction times and temperatures vary for different isoforms and are reported in Table 1), 50 μL of the development solution consisting of concentrate FLUOR DE LYS® developer I (Enzo Life Sciences, ca: BML-KI105), diluted 200 times in buffer (50 mM Tris-HCl, pH 8, 137 mM NaCl, 2.7 mM KCl, 1 mM MgCl2) plus 2 μM TSA was added and, after 25 minutes at room temperature in the dark, using the Victor 1420 Multilabel Counter Perkin Elmer Wallac instrument, the fluorescence reading was carried out.

For another assay, the target named is recombinant human HDAC6 (Homo sapiens (Human), UniProt Q9UBN7). The assay is described as follows: Enzymatic screening, HDAC6 inhibition (fluorogenic FdL_G substrate). The class given is biochemical. How it is done:
as §1

In general, IC50 refers to the concentration needed to halve the response being measured.

recombinant human HDAC1, sequence (Q13547 whole entry, canonical isoform): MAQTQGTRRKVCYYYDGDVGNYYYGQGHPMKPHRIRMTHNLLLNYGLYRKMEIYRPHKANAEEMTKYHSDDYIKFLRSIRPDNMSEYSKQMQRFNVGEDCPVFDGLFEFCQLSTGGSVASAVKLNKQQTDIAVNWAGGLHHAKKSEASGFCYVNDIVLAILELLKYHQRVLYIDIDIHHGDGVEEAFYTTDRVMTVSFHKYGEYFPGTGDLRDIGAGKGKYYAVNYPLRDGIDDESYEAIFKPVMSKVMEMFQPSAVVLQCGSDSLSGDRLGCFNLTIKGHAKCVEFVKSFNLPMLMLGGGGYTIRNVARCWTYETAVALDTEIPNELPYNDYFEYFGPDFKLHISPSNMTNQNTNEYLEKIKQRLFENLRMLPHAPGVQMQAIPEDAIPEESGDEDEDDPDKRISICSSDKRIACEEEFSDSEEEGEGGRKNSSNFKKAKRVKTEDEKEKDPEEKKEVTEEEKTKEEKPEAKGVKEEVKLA
recombinant human HDAC6, sequence (Q9UBN7 whole entry): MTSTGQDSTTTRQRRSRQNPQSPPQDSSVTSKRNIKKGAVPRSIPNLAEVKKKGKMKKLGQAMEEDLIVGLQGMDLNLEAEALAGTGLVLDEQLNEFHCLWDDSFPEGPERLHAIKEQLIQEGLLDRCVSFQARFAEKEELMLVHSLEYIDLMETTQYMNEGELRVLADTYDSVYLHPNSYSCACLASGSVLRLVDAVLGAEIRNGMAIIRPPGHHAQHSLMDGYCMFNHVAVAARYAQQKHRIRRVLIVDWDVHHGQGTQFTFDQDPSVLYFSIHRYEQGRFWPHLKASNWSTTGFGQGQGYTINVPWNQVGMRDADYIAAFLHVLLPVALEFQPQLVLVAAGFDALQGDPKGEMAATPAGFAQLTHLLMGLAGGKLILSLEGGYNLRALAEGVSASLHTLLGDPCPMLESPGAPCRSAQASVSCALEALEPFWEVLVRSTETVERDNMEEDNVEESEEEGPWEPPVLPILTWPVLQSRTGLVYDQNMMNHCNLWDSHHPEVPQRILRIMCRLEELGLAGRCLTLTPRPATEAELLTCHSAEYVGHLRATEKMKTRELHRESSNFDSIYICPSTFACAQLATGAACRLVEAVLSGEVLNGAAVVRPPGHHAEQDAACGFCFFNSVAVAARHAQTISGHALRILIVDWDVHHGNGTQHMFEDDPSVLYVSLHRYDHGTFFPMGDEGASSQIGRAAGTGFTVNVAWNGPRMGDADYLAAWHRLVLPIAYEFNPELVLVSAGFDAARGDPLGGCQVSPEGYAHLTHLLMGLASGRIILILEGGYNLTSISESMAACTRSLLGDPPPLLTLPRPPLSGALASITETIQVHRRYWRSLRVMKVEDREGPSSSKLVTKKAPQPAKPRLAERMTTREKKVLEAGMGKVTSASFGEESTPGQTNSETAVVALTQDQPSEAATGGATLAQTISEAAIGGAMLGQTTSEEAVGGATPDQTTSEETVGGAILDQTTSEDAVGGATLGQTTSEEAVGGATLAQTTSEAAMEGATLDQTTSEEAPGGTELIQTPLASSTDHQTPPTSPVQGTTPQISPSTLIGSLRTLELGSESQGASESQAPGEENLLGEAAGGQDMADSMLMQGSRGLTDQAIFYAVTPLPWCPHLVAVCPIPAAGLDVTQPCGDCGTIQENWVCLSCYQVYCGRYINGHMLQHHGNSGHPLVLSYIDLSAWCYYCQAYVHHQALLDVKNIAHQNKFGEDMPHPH

As for `C[C@@H](c1ccc(-c2nnc(C(F)F)o2)cn1)n1cc(-c2ccc(N)nc2)nn1` [Compd. 171, (S)-5-(1-(1-(5-(5-(difluoromethyl)-1,3,4-oxadiazol-2-yl)pyridin-2-yl)ethyl)-1H-1,2,3-triazol-4-yl)pyridin-2-amine], the IC50 at recombinant human HDAC1 was above 200000 nM; at recombinant human HDAC6, 82 nM.

With `O=C(Nc1cccc(-c2nc(Cc3ccc(-c4nnc(C(F)F)o4)cc3)no2)c1)N1CCOCC1` [compound 228, N-(3-(3-(4-(5-(difluoromethyl)-1,3,4-oxadiazol-2-yl)benzyl)-1,2,4-oxadiazol-5-yl)phenyl)morpholine-4-carboxamide], the IC50 on recombinant human HDAC1 is above 200000 nM; on recombinant human HDAC6, 178 nM. The matching figures for `Nc1ccc(-c2cn(C(CN3CCCC3)c3ccc(-c4nnc(C(F)F)o4)cn3)nn2)cn1` (stereo not drawn) [Compd. 301, 5-(1-(1-(5-(5-(difluoromethyl)-1,3,4-oxadiazol-2-yl)pyridin-2-yl)-2-(pyrrolidin-1-yl)ethyl)-1H-1,2,3-triazol-4-yl)pyridin-2-amine]: above 200000 nM and 64 nM. Taken in the same sequence, the figures for `O=C(Nc1cccc(-c2cnn(Cc3ccc(-c4nnc(C(F)F)o4)cn3)c2)c1)N1CCOCC1` [compound 119, N-(3-(1-((5-(5-(difluoromethyl)-1,3,4-oxadiazol-2-yl)pyridin-2-yl)methyl)-1H-pyrazol-4-yl)phenyl)morpholine-4-carboxamide] were above 200000 nM and 45 nM.

On to `Nc1ccc(-c2cn(Cc3ncc(-c4nnc(C(F)F)o4)cc3F)nn2)cn1` [compound 304, 5-[1-[[5-[5-(difluoromethyl)-1,3,4-oxadiazol-2-yl]-3-fluoropyridin-2-yl]methyl]triazol-4-yl]pyridin-2-amine], for which the IC50 on recombinant human HDAC1 is above 1e+06 nM; at recombinant human HDAC6, 35 nM. Taken in the same sequence, the figures for `Cn1c(N)nc2cc(-c3nnn(Cc4ncc(-c5nnc(C(F)F)o5)cc4F)n3)ccc21` [compound 370, 5-[2-[[5-[5-(difluoromethyl)-1,3,4-oxadiazol-2-yl]-3-fluoropyridin-2-yl]methyl]tetrazol-5-yl]-1-methylbenzimidazol-2-amine] were above 1e+06 nM and 23 nM. For `O=C(Nc1ccc(-c2nnn(Cc3ncc(-c4nnc(C(F)F)o4)cn3)n2)cn1)C(F)F` [compound 68, N-(5-(2-((5-(5-(difluoromethyl)-1,3,4-oxadiazol-2-yl)pyrimidin-2-yl)methyl)-2H-tetrazol-5-yl)pyridin-2-yl)-2,2-difluoroacetamide], the IC50 is above 200000 nM on recombinant human HDAC1 and 33 nM at recombinant human HDAC6. Taken in the same sequence, the figures for `Cn1c(N)nc2cc(-c3cn(Cc4ncc(-c5nnc(C(F)F)o5)cc4F)nn3)ccc21` [compound 349, 5-[1-[[5-[5-(difluoromethyl)-1,3,4-oxadiazol-2-yl]-3-fluoropyridin-2-yl]methyl]triazol-4-yl]-1-methylbenzimidazol-2-amine] were 178000 nM and 48 nM. The matching figures for `O=C(Nc1cccc(-c2nnn(Cc3c(F)cc(-c4nnc(C(F)F)o4)cc3F)n2)c1)N1CCOCC1` [compound 98, N-(3-(2-(4-(5-(difluoromethyl)-1,3,4-oxadiazol-2-yl)-2,6-difluorobenzyl)-2H-tetrazol-5-yl)phenyl)morpholine-4-carboxamide]: above 200000 nM and 38 nM. On to `Fc1cc(-c2nnc(C(F)F)o2)ccc1Cn1nnc(-c2ccc3cnccc3c2)n1` [compound 427, 2-(difluoromethyl)-5-(3-fluoro-4-((5-(isoquinolin-6-yl)-2H-tetrazol-2-yl)methyl)phenyl)-1,3,4-oxadiazole], for which the half-inhibitory concentration (IC50) at recombinant human HDAC6 came to 72 nM. On the same count and under the same terms, to `Fc1cc(-c2nnc(C(F)F)o2)ccc1Cn1nnc(-c2nccc3ccccc23)n1` [compound 431, 2-(difluoromethyl)-5-(3-fluoro-4-((5-(isoquinolin-1-yl)-2H-tetrazol-2-yl)methyl)phenyl)-1,3,4-oxadiazole] belongs 352 nM. Still for that read-out and setting: to `Nc1ncnc2cc(-c3cn(Cc4ccc(-c5nnc(C(F)F)o5)c(F)c4)nn3)ccc12` [compound 418, 7-(1-(4-(5-(difluoromethyl)-1,3,4-oxadiazol-2-yl)-3-fluorobenzyl)-1H-1,2,3-triazol-4-yl)quinazolin-4-amine] belongs 27 nM; to `COc1ccc(-c2nnn(Cc3ccc(-c4nnc(C(F)F)o4)cc3)n2)cc1` [compound 204, 2-(difluoromethyl)-5-(4-((5-(4-methoxyphenyl)-2H-tetrazol-2-yl)methyl)phenyl)-1,3,4-oxadiazole], 122 nM.

Regarding `CC(c1ccc(-c2nnc(C(F)F)o2)cc1)n1cc(-c2ccc(N)nc2)nn1` (stereo not drawn) [Compd. 158, 5-(1-(1-(4-(5-(difluoromethyl)-1,3,4-oxadiazol-2-yl)phenyl)ethyl)-1H-1,2,3-triazol-4-yl)pyridin-2-amine], on recombinant human HDAC6, the IC50 is 72 nM. On the same count and under the same terms, to `Fc1cc(-c2nnc(C(F)F)o2)c(F)cc1Cn1nnc(-c2ccc3cnccc3c2)n1` [compound 428, 2-(2,5-difluoro-4-((5-(isoquinolin-6-yl)-2H-tetrazol-2-yl)methyl)phenyl)-5-(difluoromethyl)-1,3,4-oxadiazole] belongs 99 nM; to `Nc1ncnc2cc(-c3cn(Cc4cc(F)c(-c5nnc(C(F)F)o5)cc4F)nn3)ccc12` [compound 433, 7-(1-(4-(5-(difluoromethyl)-1,3,4-oxadiazol-2-yl)-2,5-difluorobenzyl)-1H-1,2,3-triazol-4-yl)quinazolin-4-amine], 23 nM. `C[C@H]1CN(c2ccc(-c3nnn(Cc4ccc(-c5nnc(C(F)F)o5)cc4)n3)cn2)CCN1` [compound 182, (S)-2-(difluoromethyl)-5-(4-((5-(6-(3-methylpiperazin-1-yl)pyridin-3-yl)-2H-tetrazol-2-yl)methyl)phenyl)-1,3,4-oxadiazole]: the IC50 on recombinant human HDAC1 is above 200000 nM.

Turning to `C[C@@H]1CN(c2ccc(-c3nnn(Cc4ccc(-c5nnc(C(F)F)o5)cc4)n3)cn2)CCN1` [compound 159, (R)-2-(difluoromethyl)-5-(4-((5-(6-(3-methylpiperazin-1-yl)pyridin-3-yl)-2H-tetrazol-2-yl)methyl)phenyl)-1,3,4-oxadiazole], the IC50 on recombinant human HDAC1 was above 200000 nM. For the compound `Nc1cnc2ccc(-c3nnn(Cc4ccc(-c5nnc(C(F)F)o5)c(F)c4)n3)cc2c1` [compound 400, 6-[2-[[4-[5-(difluoromethyl)-1,3,4-oxadiazol-2-yl]-3-fluorophenyl]methyl]tetrazol-5-yl]quinolin-3-amine], the IC50 at recombinant human HDAC6 amounted to 32 nM. Still for that read-out and setting: next, `CNc1ccc2cc(-c3nnn(Cc4cc(F)c(-c5nnc(C(F)F)o5)cc4F)n3)ccc2n1` [compound 504, 6-(2-(4-(5-(difluoromethyl)-1,3,4-oxadiazol-2-yl)-2,5-difluorobenzyl)-2H-tetrazol-5-yl)-N-methylquinolin-2-amine]: 100 nM.

Regarding `FC(F)c1nnc(-c2ccc(Cn3nnc(-c4ccc(Cl)cc4Cl)n3)cc2)o1` [compound 263, 2-(4-((5-(2,4-dichlorophenyl)-2H-tetrazol-2-yl)methyl)phenyl)-5-(difluoromethyl)-1,3,4-oxadiazole], the IC50 at recombinant human HDAC6 came out at 489 nM. Still for that read-out and setting: next, `Nc1ncc2cc(-c3nnn(Cc4ccc(-c5nnc(C(F)F)o5)cc4F)n3)ccc2n1` [compound 424, 6-(2-(4-(5-(difluoromethyl)-1,3,4-oxadiazol-2-yl)-2-fluorobenzyl)-2H-tetrazol-5-yl)quinazolin-2-amine]: 76 nM; `Nc1ncnc2cc(-c3cn(Cc4ccc(-c5nnc(C(F)F)o5)cc4Cl)nn3)ccc12` [compound 434, 7-(1-(2-chloro-4-(5-(difluoromethyl)-1,3,4-oxadiazol-2-yl)benzyl)-1H-1,2,3-triazol-4-yl)quinazolin-4-amine]: 59 nM; `Nc1cnc2ccc(-c3nnn(Cc4cc(F)c(-c5nnc(C(F)F)o5)cc4F)n3)cc2c1` [compound 398, 6-[2-[[4-[5-(difluoromethyl)-1,3,4-oxadiazol-2-yl]-2,5-difluorophenyl]methyl]tetrazol-5-yl]quinolin-3-amine]: 49 nM. On the same count and under the same terms, to `Nc1ncc2cc(-c3nnn(Cc4ccc(-c5nnc(C(F)F)o5)cc4)n3)ccc2n1` [compound 278, 6-(2-(4-(5-(difluoromethyl)-1,3,4-oxadiazol-2-yl)benzyl)-2H-tetrazol-5-yl)quinazolin-2-amine] belongs 186 nM. Still for that read-out and setting: to `Nc1ncnc2sc(-c3cn(Cc4ccc(-c5nnc(C(F)F)o5)c(F)c4)nn3)cc12` [compound 417, 6-[1-({4-[5-(difluoromethyl)-1,3,4-oxadiazol-2-yl]-3-fluorophenyl}methyl)-1H-1,2,3-triazol-4-yl]thieno[2,3-d]pyrimidin-4-amine] belongs 44 nM; to `Nc1ncc2cc(-c3nnn(Cc4ccc(-c5nnc(C(F)F)o5)cc4Cl)n3)ccc2n1` [compound 425, 6-(2-(2-chloro-4-(5-(difluoromethyl)-1,3,4-oxadiazol-2-yl)benzyl)-2H-tetrazol-5-yl)quinazolin-2-amine], 545 nM.

The values above are taken from US20230286970A1, “NOVEL OXADIAZOLE-BASED SELECTIVE HDAC6 INHIBITORS” (ITALFARMACO S.P.A., priority 2020, published 2023).
